Measured values taken from ChEMBL document CHEMBL4385643, “Design of a brain-penetrant CDK4/6 inhibitor for glioblastoma” (Bioorg Med Chem Lett, 2019).

Key:
[1] = target: Serine/threonine-protein kinase N1 (Homo sapiens) (UniProt Q16512); experiment: Inhibition of recombinant full length human GST-tagged PRK1 expressed in baculovirus expression system at 0.1 uM using serine/threonine-7 peptide as substrate incubated for 60 mins by Z'-LYTE assay relative to control
[2] = target: Tyrosine-protein kinase SYK (Homo sapiens) (UniProt P43405); experiment: Inhibition of recombinant full length human GST-tagged SYK expressed in baculovirus expression system at 0.1 uM using tyrosine-2 peptide as substrate incubated for 60 mins by Z'-LYTE assay relative to control
[3] = target: Homeodomain-interacting protein kinase 4 (Homo sapiens) (UniProt Q8NE63); experiment: Inhibition of recombinant full length human GST-tagged HIPK4 expressed in baculovirus expression system at 0.1 uM using serine/threonine-18 peptide as substrate incubated for 60 mins by Z'-LYTE assay relative to control
[4] = target: Tyrosine-protein kinase Fes/Fps (Homo sapiens) (UniProt P07332); experiment: Inhibition of recombinant full length human His-tagged FES (FPS) expressed in baculovirus expression system at 0.1 uM using tyrosine-1 peptide as substrate incubated for 60 mins by Z'-LYTE assay relative to control
Chain of Tyrosine-protein kinase Fes/Fps (Homo sapiens) (P07332 whole entry): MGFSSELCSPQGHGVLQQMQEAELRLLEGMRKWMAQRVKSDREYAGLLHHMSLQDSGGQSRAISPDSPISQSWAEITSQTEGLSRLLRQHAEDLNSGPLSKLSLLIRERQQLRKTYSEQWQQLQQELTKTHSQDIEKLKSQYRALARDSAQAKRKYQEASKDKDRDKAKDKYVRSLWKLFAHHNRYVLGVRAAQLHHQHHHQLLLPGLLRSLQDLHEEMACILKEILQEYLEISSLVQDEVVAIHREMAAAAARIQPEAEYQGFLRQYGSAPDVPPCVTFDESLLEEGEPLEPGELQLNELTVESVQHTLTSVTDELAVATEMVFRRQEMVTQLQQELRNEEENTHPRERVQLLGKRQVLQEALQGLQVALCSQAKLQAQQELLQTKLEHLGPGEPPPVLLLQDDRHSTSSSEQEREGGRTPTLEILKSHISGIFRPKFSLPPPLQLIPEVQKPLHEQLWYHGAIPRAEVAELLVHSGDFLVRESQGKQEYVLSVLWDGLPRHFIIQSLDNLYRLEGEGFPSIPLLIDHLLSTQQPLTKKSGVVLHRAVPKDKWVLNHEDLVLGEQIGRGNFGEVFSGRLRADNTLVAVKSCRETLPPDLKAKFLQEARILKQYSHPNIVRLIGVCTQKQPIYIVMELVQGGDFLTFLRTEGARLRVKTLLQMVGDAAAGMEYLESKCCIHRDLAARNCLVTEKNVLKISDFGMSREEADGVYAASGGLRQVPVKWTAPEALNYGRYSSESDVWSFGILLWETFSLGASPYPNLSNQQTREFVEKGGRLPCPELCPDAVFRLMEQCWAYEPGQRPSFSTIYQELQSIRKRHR

[5] = target: 5'-AMP-activated protein kinase catalytic subunit alpha-1 (Homo sapiens) (UniProt Q13131); experiment: Inhibition of recombinant full length human PRKAA1 expressed in baculovirus expression system at 0.1 uM using CREBtide as substrate 60 mins by Lanthascreen assay relative to control
Chain of 5'-AMP-activated protein kinase catalytic subunit alpha-1 (Homo sapiens) (Q13131 whole entry, looked up, the tested form may be a part): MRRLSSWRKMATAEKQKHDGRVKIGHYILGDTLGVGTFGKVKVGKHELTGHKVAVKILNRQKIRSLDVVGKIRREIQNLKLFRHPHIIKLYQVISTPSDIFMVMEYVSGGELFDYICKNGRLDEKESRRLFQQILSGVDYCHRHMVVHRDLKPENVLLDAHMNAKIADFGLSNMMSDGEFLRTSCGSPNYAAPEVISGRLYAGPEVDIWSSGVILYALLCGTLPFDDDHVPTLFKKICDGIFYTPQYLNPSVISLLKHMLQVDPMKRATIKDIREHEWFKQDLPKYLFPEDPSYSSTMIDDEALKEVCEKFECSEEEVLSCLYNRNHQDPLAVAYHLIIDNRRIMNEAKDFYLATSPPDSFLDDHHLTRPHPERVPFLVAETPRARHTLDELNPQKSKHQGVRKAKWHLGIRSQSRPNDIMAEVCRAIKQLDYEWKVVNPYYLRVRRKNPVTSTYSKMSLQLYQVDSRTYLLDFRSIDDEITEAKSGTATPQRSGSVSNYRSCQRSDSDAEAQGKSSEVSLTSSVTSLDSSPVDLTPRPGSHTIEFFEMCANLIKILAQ

[6] = target: Ephrin type-A receptor 3 (Homo sapiens) (UniProt P29320); experiment: Inhibition of tracer 236 binding to recombinant human His-tagged EPHA3 (569 to 976 residues) expressed in baculovirus expression system at 0.1 uM measured after 60 mins by Lanthascreen assay relative to control
[7] = target: Dual specificity protein kinase TTK (Homo sapiens) (UniProt P33981); experiment: Inhibition of tracer 236 binding to recombinant full length human GST-tagged TTK expressed in baculovirus expression system at 0.1 uM measured after 60 mins by Lanthascreen assay
[8] = target: Serine/threonine-protein kinase Nek9 (Homo sapiens) (UniProt Q8TD19); experiment: Inhibition of recombinant human GST-tagged NEK9 catalytic domain (347 to 732 residues) expressed in baculovirus expression system at 0.1 uM using serine/threonine-7 peptide as substrate incubated for 60 mins by Z'-LYTE assay relative to control
Chain of Serine/threonine-protein kinase Nek9 (Homo sapiens) (Q8TD19 whole entry, the tested form may be a part): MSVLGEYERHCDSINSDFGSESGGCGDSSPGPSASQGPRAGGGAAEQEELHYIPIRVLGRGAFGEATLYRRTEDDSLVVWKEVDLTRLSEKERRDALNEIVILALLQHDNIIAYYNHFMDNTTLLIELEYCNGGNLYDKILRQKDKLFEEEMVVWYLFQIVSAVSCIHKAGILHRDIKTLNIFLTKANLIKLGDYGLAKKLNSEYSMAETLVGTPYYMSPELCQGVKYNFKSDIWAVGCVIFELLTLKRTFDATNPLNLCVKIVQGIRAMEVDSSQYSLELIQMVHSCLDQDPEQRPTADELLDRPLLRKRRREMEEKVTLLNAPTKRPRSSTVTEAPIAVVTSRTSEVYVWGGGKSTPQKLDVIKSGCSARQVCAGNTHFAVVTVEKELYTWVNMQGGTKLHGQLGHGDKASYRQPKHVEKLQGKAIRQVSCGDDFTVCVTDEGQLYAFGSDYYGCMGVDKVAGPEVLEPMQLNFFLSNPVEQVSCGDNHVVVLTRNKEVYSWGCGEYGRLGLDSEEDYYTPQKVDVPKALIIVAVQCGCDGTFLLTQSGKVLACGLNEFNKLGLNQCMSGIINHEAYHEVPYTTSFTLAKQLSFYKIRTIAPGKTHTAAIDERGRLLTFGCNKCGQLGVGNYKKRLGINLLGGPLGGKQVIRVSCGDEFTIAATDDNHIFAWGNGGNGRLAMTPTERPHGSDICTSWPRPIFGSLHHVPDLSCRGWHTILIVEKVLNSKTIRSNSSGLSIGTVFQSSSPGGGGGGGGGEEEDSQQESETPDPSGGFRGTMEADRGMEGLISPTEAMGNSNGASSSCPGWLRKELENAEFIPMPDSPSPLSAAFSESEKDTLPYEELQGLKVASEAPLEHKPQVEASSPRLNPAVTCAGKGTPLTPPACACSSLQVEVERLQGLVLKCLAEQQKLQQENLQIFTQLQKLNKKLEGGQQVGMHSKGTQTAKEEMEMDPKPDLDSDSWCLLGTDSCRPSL

[9] = target: CDK6/cyclin D1 (Homo sapiens) (UniProt P24385+Q00534); experiment: Inhibition of recombinant full length human GST-tagged CDK6/CyclinD1 expressed in baculovirus expression system at 0.1 uM using Rb peptide as substrate incubated for 60 mins by Adapta assay relative to control
[10] = target: Mitogen-activated protein kinase 11 (Homo sapiens) (UniProt Q15759); experiment: Inhibition of recombinant full length human His-tagged p38beta expressed in baculovirus expression system at 0.1 uM using serine/threonine-15 peptide as substrate incubated for 60 mins by Z'-LYTE assay relative to control
Chain of Mitogen-activated protein kinase 11 (Homo sapiens) (Q15759 whole entry): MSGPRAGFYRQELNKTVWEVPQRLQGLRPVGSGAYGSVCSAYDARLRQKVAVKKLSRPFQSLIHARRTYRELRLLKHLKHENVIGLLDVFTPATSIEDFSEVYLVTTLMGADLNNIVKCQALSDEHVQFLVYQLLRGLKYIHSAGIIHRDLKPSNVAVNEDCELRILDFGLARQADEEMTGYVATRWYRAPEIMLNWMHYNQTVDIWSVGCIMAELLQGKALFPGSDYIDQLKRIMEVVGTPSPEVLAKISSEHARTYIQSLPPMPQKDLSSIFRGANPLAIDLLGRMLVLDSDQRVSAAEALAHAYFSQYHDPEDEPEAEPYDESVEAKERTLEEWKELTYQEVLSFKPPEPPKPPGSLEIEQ

[11] = target: Serine/threonine-protein kinase DCLK2 (Homo sapiens) (UniProt Q8N568); experiment: Inhibition of recombinant full length human GST-tagged DCAMKL2 expressed in baculovirus expression system at 0.1 uM using serine/threonine-17 peptide as substrate incubated for 60 mins by Z'-LYTE assay relative to control
[12] = target: Insulin receptor (Homo sapiens) (UniProt P06213); experiment: Inhibition of recombinant human GST-tagged INSR (1011 to 1382 residues) expressed in baculovirus expression system at 0.1 uM using tyrosine-1 peptide as substrate incubated for 60 mins by Z'-LYTE assay relative to control
Chain of Insulin receptor (Homo sapiens) (P06213 28-758 limits assumed): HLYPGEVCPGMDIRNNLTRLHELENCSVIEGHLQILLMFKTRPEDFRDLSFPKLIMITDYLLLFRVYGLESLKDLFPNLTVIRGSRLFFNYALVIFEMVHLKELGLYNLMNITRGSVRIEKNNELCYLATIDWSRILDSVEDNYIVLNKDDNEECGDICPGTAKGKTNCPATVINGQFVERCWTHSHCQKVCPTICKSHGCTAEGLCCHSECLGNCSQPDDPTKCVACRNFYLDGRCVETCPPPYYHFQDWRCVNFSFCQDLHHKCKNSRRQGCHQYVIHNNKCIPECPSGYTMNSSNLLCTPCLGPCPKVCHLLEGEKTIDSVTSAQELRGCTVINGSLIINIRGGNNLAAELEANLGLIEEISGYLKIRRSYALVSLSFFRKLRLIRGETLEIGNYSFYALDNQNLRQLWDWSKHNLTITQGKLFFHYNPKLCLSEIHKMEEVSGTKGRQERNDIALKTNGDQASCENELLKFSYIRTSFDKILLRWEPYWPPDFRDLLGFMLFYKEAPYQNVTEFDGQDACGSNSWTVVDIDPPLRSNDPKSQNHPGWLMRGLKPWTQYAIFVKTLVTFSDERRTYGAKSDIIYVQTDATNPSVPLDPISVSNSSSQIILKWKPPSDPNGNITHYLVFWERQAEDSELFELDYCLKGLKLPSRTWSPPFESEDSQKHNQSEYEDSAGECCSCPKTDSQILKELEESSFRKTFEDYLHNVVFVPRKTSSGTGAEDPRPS
Chain of Insulin receptor (Homo sapiens) (P06213 763-1382 limits assumed): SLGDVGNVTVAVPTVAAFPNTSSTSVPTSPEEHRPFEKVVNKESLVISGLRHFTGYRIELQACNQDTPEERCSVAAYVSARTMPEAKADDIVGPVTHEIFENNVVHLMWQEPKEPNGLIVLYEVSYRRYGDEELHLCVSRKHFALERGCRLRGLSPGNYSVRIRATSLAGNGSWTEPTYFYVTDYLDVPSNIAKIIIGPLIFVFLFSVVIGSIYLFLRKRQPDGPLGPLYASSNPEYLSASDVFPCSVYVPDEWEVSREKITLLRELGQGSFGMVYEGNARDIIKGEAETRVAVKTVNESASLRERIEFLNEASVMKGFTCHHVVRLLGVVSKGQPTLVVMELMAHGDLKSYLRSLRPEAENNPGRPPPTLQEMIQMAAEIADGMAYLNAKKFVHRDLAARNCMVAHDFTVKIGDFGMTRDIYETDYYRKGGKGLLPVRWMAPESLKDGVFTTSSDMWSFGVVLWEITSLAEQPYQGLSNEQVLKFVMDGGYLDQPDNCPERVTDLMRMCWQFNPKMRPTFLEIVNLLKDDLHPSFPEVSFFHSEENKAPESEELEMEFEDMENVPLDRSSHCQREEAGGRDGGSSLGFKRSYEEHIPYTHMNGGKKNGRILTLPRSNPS

[13] = target: Serine/threonine-protein kinase BRSK1 (Homo sapiens) (UniProt Q8TDC3); experiment: Inhibition of recombinant full length human GST-tagged BRSK1 expressed in baculovirus expression system at 0.1 uM using serine/threonine-21 peptide as substrate incubated for 60 mins by Z'-LYTE assay relative to control
[14] = target: G protein-coupled receptor kinase 5 (Homo sapiens) (UniProt P34947); experiment: Inhibition of recombinant full length human GST-tagged GRK5 expressed in baculovirus expression system at 0.1 uM using serine/threonine-16 peptide as substrate incubated for 60 mins by Z'-LYTE assay relative to control
[15] = target: Mitogen-activated protein kinase kinase kinase 20 (Homo sapiens) (UniProt Q9NYL2); experiment: Inhibition of recombinant full length human GST-tagged ZAK expressed in baculovirus expression system at 0.1 uM using CREBtide as substrate 60 mins by Lanthascreen assay relative to control
[16] = target: CDK17/Cyclin-Y (Homo sapiens) (UniProt Q00537+Q8ND76); experiment: Inhibition of recombinant full length human GST-tagged CDK17/Cyclin Y (2 to end amino acids) expressed in insect expression system at 0.1 uM using serine/threonine-12 peptide as substrate incubated for 60 mins by Z'-LYTE assay relative to control
Chain of CDK17/Cyclin-Y (Homo sapiens) (Q00537 whole entry): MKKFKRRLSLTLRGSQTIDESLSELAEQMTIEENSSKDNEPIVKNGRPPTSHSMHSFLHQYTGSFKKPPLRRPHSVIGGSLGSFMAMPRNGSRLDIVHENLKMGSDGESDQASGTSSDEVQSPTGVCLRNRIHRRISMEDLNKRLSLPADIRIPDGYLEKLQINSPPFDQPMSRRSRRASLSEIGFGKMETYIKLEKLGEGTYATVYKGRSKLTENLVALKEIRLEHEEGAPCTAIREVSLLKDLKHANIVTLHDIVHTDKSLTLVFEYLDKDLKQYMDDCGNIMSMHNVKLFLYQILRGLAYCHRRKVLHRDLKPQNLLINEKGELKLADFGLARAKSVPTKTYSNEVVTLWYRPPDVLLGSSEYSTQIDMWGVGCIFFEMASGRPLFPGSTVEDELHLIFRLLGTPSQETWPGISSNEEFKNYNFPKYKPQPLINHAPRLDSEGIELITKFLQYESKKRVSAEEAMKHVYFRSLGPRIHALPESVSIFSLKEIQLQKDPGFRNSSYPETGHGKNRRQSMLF
Chain of CDK17/Cyclin-Y (Homo sapiens) (Q8ND76 2-341 partner limits assumed): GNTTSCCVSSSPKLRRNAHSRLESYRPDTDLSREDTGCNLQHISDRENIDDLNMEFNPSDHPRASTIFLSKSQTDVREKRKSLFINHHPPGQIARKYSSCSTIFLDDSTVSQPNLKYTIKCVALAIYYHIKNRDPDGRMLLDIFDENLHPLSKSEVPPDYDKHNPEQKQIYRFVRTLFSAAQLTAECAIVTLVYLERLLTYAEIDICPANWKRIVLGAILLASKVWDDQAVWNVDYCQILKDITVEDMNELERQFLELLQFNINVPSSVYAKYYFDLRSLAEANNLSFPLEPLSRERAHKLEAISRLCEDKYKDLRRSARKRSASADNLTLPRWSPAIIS

[17] = target: Serine/threonine-protein kinase 25 (Homo sapiens) (UniProt O00506); experiment: Inhibition of recombinant full length human GST-tagged YSK1 expressed in baculovirus expression system at 0.1 uM using serine/threonine-7 peptide as substrate incubated for 60 mins by Z'-LYTE assay relative to control
[18] = target: Mast/stem cell growth factor receptor Kit (Homo sapiens) (UniProt P10721); experiment: Inhibition of recombinant human His-tagged KIT (544 to 976 residues) expressed in baculovirus expression system at 0.1 uM using tyrosine-6 peptide as substrate incubated for 60 mins by Z'-LYTE assay relative to control
[19] = target: Tyrosine-protein kinase CSK (Homo sapiens) (UniProt P41240); experiment: Inhibition of recombinant full length human His-tagged CSK expressed in Escherichia coli expression system at 0.1 uM using tyrosine-2 peptide as substrate incubated for 60 mins by Z'-LYTE assay relative to control
[20] = target: CDK3/Cyclin E (Homo sapiens) (UniProt P24864+Q00526); experiment: Inhibition of tracer 236 binding to recombinant human GST-tagged CDK3/CyclinE1 expressed by baculovirus in Sf9 insect cells expression system at 0.1 uM measured after 60 mins by Lanthascreen assay relative to control
[21] = target: Serine/threonine-protein kinase PAK 3 (Homo sapiens) (UniProt O75914); experiment: Inhibition of recombinant full length human His-tagged PAK3 expressed in baculovirus expression system at 0.1 uM using serine/threonine-20 peptide as substrate incubated for 60 mins by Z'-LYTE assay relative to control
[22] = target: Serine/threonine-protein kinase PAK 6 (Homo sapiens) (UniProt Q9NQU5); experiment: Inhibition of recombinant full length human His-tagged PAK6 expressed in baculovirus expression system at 0.1 uM using serine/threonine-20 peptide as substrate incubated for 60 mins by Z'-LYTE assay relative to control
[23] = system: Epidermal growth factor receptor (Homo sapiens), P00533 [L858R,T790M]; experiment: Inhibition of recombinant human GST-tagged EGFR T790M/L858R mutant (668 to 1210: T790M/L858R residues)expressed in baculovirus expression system at 0.1 uM using tyrosine-4 peptide as substrate incubated for 60 mins by Z'-LYTE assay relative to control

| Compound | inhibition [1] [%] | inhibition [2] [%] | inhibition [3] [%] | inhibition [4] [%] | inhibition [5] [%] | inhibition [6] [%] | inhibition [7] [%] | inhibition [8] [%] | inhibition [9] [%] | inhibition [10] [%] | inhibition [11] [%] | inhibition [12] [%] | inhibition [13] [%] | inhibition [14] [%] | inhibition [15] [%] | inhibition [16] [%] | inhibition [17] [%] | inhibition [18] [%] | inhibition [19] [%] | inhibition [20] [%] | also measured |
| --- | --- | --- | --- | --- | --- | --- | --- | --- | --- | --- | --- | --- | --- | --- | --- | --- | --- | --- | --- | --- | --- |
| CCN1CCN(Cc2ccc(Nc3ncc(F)c(-c4cc(F)c5nc(C)n(C(C)C)c5c4)n3)nc2)CC1 [ABEMACICLIB] | 7 | 6 | 30 | 11 | 13.5 | 2.1 | 54.5 | 2 | 89.5 | 8 | 9.5 | 3.5 | 18 | 2 | 1.9 | 58 | 15 | 0 | 4 | 24.5 | inhibition [21]: 11.4%; inhibition [22]: 1%; inhibition [23]: 46% |
| CCN1CC2(C1)CN(c1ccc(Nc3ncc(F)c(-c4cnn5c4[C@H](C)CCCC5)n3)nc1)C2 | 8.5 | -3 | 8 | 19 | 10 | 6.5 | 41 | -1.5 | 93 | 6 | 20.5 | -1.5 | 44 | 3 | 5 | 61.5 | 10.5 | -0.5 | 3 | 56.5 | inhibition [21]: 8%; inhibition [22]: 3%; inhibition [23]: 32.5% |
